Results: publication PMC8589421, “Impact of Type II LRRK2 inhibitors on signaling and mitophagy” (Biochemical Journal, 2021)

Assays:
[1] = test system: basal mitophagy, wild type MEFs; assay: mito-QC basal mitophagy in wild-type primary MEFs; assay type: cell-based, mouse; conditions: 24 h, 30–300 nM GZD-824, GSK3357679A 100 nM positive control
Protocol: To assess mitophagy, wild type, G2019S knock in, and LRRK2 knock out primary mouse embryonic fibroblasts (MEFs) were derived, from time-mated pregnant females at E12.5 as previously described. Briefly, cells were plated on glass coverslips and incubated with DMEM (Gibco, 11960-044) supplemented with 10% FBS, 2 mM L-Glutamine (Gibco, 2503-081), 1% non-essential amino acids (Gibco, 11140-035), 1% Antibiotics (Penicillin/Streptomycin 100 U/ml penicillin and 100 µg/ml streptomycin; Gibco), and 150 µM β-Mercaptoethanol (Gibco, 21985-023) at 37°C under a humidified 5% CO2 atmosphere. […] GSK3357679A 100 nM (Ding et al., in prep) was used as a positive control. At the end of the treatment, MEFs were briefly washed twice in DPBS (Gibco, 14190-094), and fixed in 3.7% Paraformaldehyde pH 7.00 (Sigma, P6148), 200 mM HEPES, for 20 min. Cells were then washed two times with DMEM, 10 mM HEPES, and then incubated for 10 min with DMEM, 10 mM HEPES. […] Images were acquired using a Nikon Eclipse Ti-S fluorescence microscope with a 63× objective. Images were analyzed using the mito-QC counter as previously described. Experiments were performed in 3–4 independent experiments and data was analyzed with a one-way ANOVA followed by a Dunnett's multiple comparison test using the GraphPad Prism software (version 8.4.3 (686)).

[2] = test system: LRRK2 Ser935 phosphorylation, LRRK2[R1441C]; assay: LRRK2 Ser935 phospho-immunoblot in LRRK2[R1441C] knock-in MEFs; assay type: cell-based, mouse
Protocol: (§1) Wild-type and homozygous LRRK2 [R1441C] (Jax, stock number: 009346), LRRK2[G2019S] Taconic, (model 13940) and LRRK2 [A2016T] (Jax, stock number: 021828)[7] knock-in MEF cells were isolated from littermate-matched mouse embryos on a C57BL/6J background at day E12.5 as described previously. MEFs were grown in Dulbecco's modified Eagle medium (DMEM GIBCO, #11960-085) containing 10% (by vol) fetal bovine serum (FBS), 2 mM L-glutamine, 100 U/ml penicillin, and […] streptomycin supplemented with non-essential amino acids and 1 mM sodium pyruvate. Human embryonic kidney 293 (HEK293) (#ATCC CRL-1573) and HeLa (#ATCC CCL-2) cells were purchased from American Tissue Culture Collection (ATCC) and cultured in DMEM containing 10% (by vol) FBS, 2 mM L-glutamine, 100 U/ml penicillin, and […] streptomycin. All cells were grown at 37°C, 5% (by vol) CO2 in a humidified atmosphere and regularly tested for mycoplasma contamination.
(§2) Inhibitors were dissolved in dimethyl sulfoxide (DMSO) (Sigma, #D2650). The inhibitors were diluted 1000× into cell medium. The equivalent volume of DMSO was added to the minus inhibitor controls. Experiments were performed in six-well plates, 10 cm dishes or 15 cm dishes depending on the amount of cell extract required.
(§3) Cells were lysed in an ice-cold lysis buffer containing 50 mM Tris–HCl, pH 7.4, 1% (by vol) Triton X-100, 10% (by vol) glycerol, 150 mM NaCl, 1 mM sodium orthovanadate, 50 mM NaF, 10 mM 2-glycerophosphate, 5 mM sodium pyrophosphate, 1 µg/ml microcystin-LR, and cOmplete EDTA-free protease inhibitor cocktail (Roche, #11836170001). Lysates were incubated on ice for 30 min and clarified by centrifugation at 20 800×g at 4°C for 20 min. Supernatants were quantified by Bradford assay (Bio-Rad Protein Assay Dye Reagent Concentrate #5000006) and samples prepared in 1× lithium dodecyl sulfate sample buffer final concentration (NuPage LDS Sample buffer 4× Invitrogen, #NP0008). When not deployed immediately, lysates were snap-frozen in liquid nitrogen and stored at −80°C until use.
Cell extracts were mixed with a quarter of a volume of NuPage LDS Sample buffer 4× Invitrogen and heated at 95°C for 5 min. […] At the end of electrophoresis, proteins were electrophoretically transferred onto the nitrocellulose membrane (GE Healthcare, Amersham Protran Supported 0.45 µm NC) at 100 V for 90 min on ice in the transfer buffer (48 mM Tris–HCl and 39 mM glycine supplemented with 20% methanol). Transferred membrane was blocked with 5% (w/v) skim milk powder dissolved in TBS-T [20 mM Tris–HCl, pH 7.5, 150 mM NaCl and 0.1% (v/v) Tween 20] at room temperature for 1 h. […]

[3] = test system: Dundee panel of 140 protein kinases; assay: Kinase profiling; assay type: biochemical
Text: […] Results for each kinase are presented as the mean kinase activity ±S.D. for an assay undertaken in duplicate relative to a control kinase assay in which the inhibitor was omitted. Abbreviations and assay conditions used for each kinase are available (http://www.kinase-screen.mrc.ac.uk/services/premier-screen).

[4] = test system: Rab10 phosphorylation, LRRK2[A2016T]; assay: Rab10 Thr73 phospho-immunoblot in inhibitor resistant LRRK2[A2016T] knock-in MEFs; assay type: cell-based, mouse; conditions: 2 h, up to 3 µM
Protocol: as §1, §2
as §3, with “use. […]” for “use.”

[5] = test system: LRRK2 Ser935 phosphorylation, LRRK2[G2019S]; assay: LRRK2 Ser935 phospho-immunoblot in LRRK2[G2019S] knock-in MEFs; assay type: cell-based, mouse; conditions: Figure 4B
Protocol: as §1, with “All cells were grown at 37°C, 5% (by vol) CO2 in a humidified atmosphere and regularly tested for mycoplasma contamination.” left out
Cells were lysed in an ice-cold lysis buffer containing 50 mM Tris–HCl, pH 7.4, 1% (by vol) Triton X-100, 10% (by vol) glycerol, 150 mM NaCl, 1 mM sodium orthovanadate, 50 mM NaF, 10 mM 2-glycerophosphate, 5 mM sodium pyrophosphate, 1 µg/ml microcystin-LR, and cOmplete EDTA-free protease inhibitor cocktail (Roche, #11836170001). […] Supernatants were quantified by Bradford assay (Bio-Rad Protein Assay Dye Reagent Concentrate #5000006) and samples prepared in 1× lithium dodecyl sulfate sample buffer final concentration (NuPage LDS Sample buffer 4× Invitrogen, #NP0008). […]

Cc1ccc(C(=O)Nc2ccc(CN3CCN(C)CC3)c(C(F)(F)F)c2)cc1C#Cc1cnc2[nH]ncc2c1 [GZD-824]
stimulation of basal mitophagy [1]: ~2 fold | time at which Ser935 phosphorylation plateaued ([2]; LRRK2[R1441C] cells, 1 μM): 160 min | time by which Ser935 phosphorylation increased ([2]; LRRK2[R1441C] cells, 1 μM): ≤ 40 min | effect on Ser935 phosphorylation in LRRK2[R1441C] knock-in cells ([2]; dose and time dependent): rescue Ser935 phosphorylation | number of the 140 kinases assayed suppressed by over 80% ([3]; 0.1 μM inhibitor): 22 | number of the 140 kinases assayed suppressed by over 80% ([3]; 1 μM inhibitor): 43 | effect of A2016T mutation on inhibition of Rab10 phosphorylation [4]: markedly blocked | effect on Ser935 phosphorylation in LRRK2[G2019S] cells [5]: did not impact Ser935 phosphorylation
